Measurements reported in patent US11712438B2, “Phenyl derivatives as PGE2 receptor modulators” (IDORSIA PHARMACEUTICALS LTD, priority 2017, dated 2023).

What was measured:
PTGER2 (EP2) = PTGER2 (EP2) (Homo sapiens, UniProt P43116); assay: cell-based
PTRGER4 (EP4) = PTRGER4 (EP4) (Homo sapiens, UniProt P35408); assay: cell-based;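 also: assay plate preincubated 15 min at 37 °C, after which PGE2 was added at 20 nM final and incubation continued 120 min at 37 °C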
PTRGER4 (EP4), sequence (P35408 whole entry): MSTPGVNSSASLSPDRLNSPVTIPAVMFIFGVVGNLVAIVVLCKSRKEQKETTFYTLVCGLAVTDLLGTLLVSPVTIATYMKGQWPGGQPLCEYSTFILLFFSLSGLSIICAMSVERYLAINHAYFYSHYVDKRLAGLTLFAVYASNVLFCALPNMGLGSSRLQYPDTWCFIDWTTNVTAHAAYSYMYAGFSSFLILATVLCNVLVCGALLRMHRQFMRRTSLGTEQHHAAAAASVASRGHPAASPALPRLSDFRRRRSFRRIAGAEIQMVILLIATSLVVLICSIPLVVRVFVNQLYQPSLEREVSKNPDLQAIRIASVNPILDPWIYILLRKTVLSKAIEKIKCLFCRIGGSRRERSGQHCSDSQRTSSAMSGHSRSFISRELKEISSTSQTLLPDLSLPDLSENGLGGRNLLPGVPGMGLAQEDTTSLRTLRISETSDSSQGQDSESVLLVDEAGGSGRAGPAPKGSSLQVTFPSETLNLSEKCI

PTGER2 (EP2), sequence (P43116 whole entry): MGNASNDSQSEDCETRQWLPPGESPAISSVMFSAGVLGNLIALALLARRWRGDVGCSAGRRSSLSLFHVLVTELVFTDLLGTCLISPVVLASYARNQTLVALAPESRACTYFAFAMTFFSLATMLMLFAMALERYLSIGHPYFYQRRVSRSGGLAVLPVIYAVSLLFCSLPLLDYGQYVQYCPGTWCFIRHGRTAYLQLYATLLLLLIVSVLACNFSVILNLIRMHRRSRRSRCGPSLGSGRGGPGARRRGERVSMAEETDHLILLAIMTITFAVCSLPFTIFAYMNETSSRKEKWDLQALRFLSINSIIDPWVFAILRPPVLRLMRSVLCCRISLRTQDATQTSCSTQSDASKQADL

Row | SMILES | IC50 (PTGER2 (EP2)) [nM] | IC50 (PTRGER4 (EP4)) [nM]
1 | Fc1cc(Br)cc(F)c1CCNc1cc(-c2ccc3cc[nH]c3c2)ncn1 [Example 170, [2-(4-Bromo-2,6-difluoro-phenyl)-ethyl]-[6-(1H-indol-6yl)-pyrimidin-4-yl]amine] | 424 | 746
2 | CCOc1cc(-c2cc(NCCc3c(F)cc(Br)cc3F)ncn2)ccc1C1(C(=O)O)CC1 [Example 171, 1-(4-{6-[2-(4-Bromo-2,6-difluoro-phenyl)-ethylamino]-pyrimidin-4-yl}-2-ethoxy-phenyl)-cyclopropanecarboxylic acid] | 680 | 582
3 | CCCc1cc(-c2cc(NCCc3c(F)cc(Br)cc3F)ncn2)ccc1C1(C(=O)O)CC1 [Example 172, 1-(4-{6-[2-(4-Bromo-2,6-difluoro-phenyl)-ethylamino]-pyrimidin-4-yl}-2-propyl-phenyl)-cyclopropanecarboxylic acid] | 440 | 401
4 | COc1ccc(SC)cc1CCNc1cc(-c2ccc(C(=O)O)c(OC3CCC3)c2)ncn1 [Example 173, 2-Cyclobutoxy-4-{6-[2-(2-methoxy-5-methylsulfanyl-phenyl)-ethylamino]pyrimidin-4-yl}-benzoic acid] | 107 | 519
5 | CCOc1c(CC(=O)O)ccc(-c2cc(NCCc3c(F)cc(Br)cc3F)ncn2)c1F [Example 175, (4-{6-[2-(4-Bromo-2,6-difluoro-phenyl)-ethylamino]-pyrimidin-4-yl}-2-ethoxy-3-fluoro-phenyl)-acetic acid] | 258 | 461
6 | CCOc1cc(-c2cc(NCCc3c(F)cccc3OC)ncn2)sc1C(=O)O [Example 177, 3-Ethoxy-5-{6-[2-(2-fluoro-6-methoxy-phenyl)-ethylamino]-pyrimidin-4-yl}-thiophene-2-carboxylic acid] | 126 | 343
7 | CCOc1cc(-c2cc(NCCc3cc(F)c(F)cc3OC)ncn2)sc1C(=O)O [Example 179, 5-{6-[2-(4,5-Difluoro-2-methoxy-phenyl)-ethylamino]-pyrimidin-4-yl}-3-ethoxy-thiophene-2-carboxylic acid] | 140 | 315
8 | CCOc1cc(-c2cc(NCCc3c(F)cc(Br)cc3F)ncn2)ccc1NCC(=O)O [Example 182, (4-{6-[2-(4-Bromo-2,6-difluoro-phenyl)-ethylamino]-pyrimidin-4-yl}-2-ethoxy-phenylamino)-acetic acid] | 163 | 208
9 | CCOc1cc(-c2cc(NCCc3cc(F)c(C(F)F)cc3OC)ncn2)ccc1C(=O)O [Example 183, 4-{6-[2-(4-Difluoromethyl-5-fluoro-2-methoxy-phenyl)-ethylamino]-pyrimidin-4-yl}-2-ethoxy-benzoic acid] | 695 | 661
10 | COc1cc(C)c(C)cc1CCNc1cc(-c2ccc(C(=O)O)c(OC3CCC3)c2)ncn1 [Example 188, 2-Cyclobutoxy-4-{6-[2-(2-methoxy-4,5-dimethyl-phenyl)-ethylamino]-pyrimidin-4-yl}-benzoic acid] | 179 | 117
11 | CCCc1cc(-c2cc(NCCc3cc(C)c(C)cc3OC)ncn2)ccc1C(=O)O [Example 189] | 295 | 338
12 | CCOc1cc(-c2cc(NCCc3cc(C)c(C)cc3OC)ncn2)ccc1CC(=O)O [Example 190, (2-Ethoxy-4-{6-[2-(2-methoxy-4,5-dimethyl-phenyl)-ethylamino]-pyrimidin-4-yl}-phenyl)-acetic acid] | 486 | 181
13 | COc1cc(C)c(C)cc1CCNc1cc(-c2ccc(CC(=O)O)c(SC)c2)ncn1 [Example 191, (4-{6-[2-(2-Methoxy-4,5-dimethyl-phenyl)-ethylamino]-pyrimidin-4-yl}-2-methylsulfanyl-phenyl)-acetic acid] | 322 | 145
14 | CCCc1cc(-c2cc(NCCc3cc(C)c(C)cc3OC)ncn2)ccc1CC(=O)O [Example 192, (4-{6-[2-(2-Methoxy-4,5-dimethyl-phenyl)-ethylamino]-pyrimidin-4-yl}-2-propyl-phenyl)-acetic acid] | 380 | 193
15 | CCOc1cc(-c2cc(NCCc3cc(C)c(C)cc3OC)ncn2)cc(F)c1CC(=O)O [Example 193, (2-Ethoxy-6-fluoro-4-{6-[2-(2-methoxy-4,5-dimethyl-phenyl)-ethylamino]-pyrimidin-4-yl}-phenyl)-acetic acid] | 797 | 159
16 | CCCOc1cc(-c2cc(NCCc3cc(C)c(C)cc3OC)ncn2)ccc1CC(=O)O [Example 194, (4-{6-[2-(2-Methoxy-4,5-dimethyl-phenyl)-ethylamino]-pyrimidin-4-yl}-2-propoxy-phenyl)-acetic acid] | 548 | 207
17 | CCOc1cc(-c2cc(NCCc3cc(Cl)c(C(F)(F)F)cc3OC)ncn2)ccc1C(=O)O [Example 195, 4-{6-[2-(5-Chloro-2-methoxy-4-trifluoromethyl-phenyl)-ethylamino]-pyrimidin-4-yl}-2-ethoxy-benzoic acid] | 837 | 269

Row | SMILES | IC50 (PTGER2 (EP2)) [nM] | IC50 (PTRGER4 (EP4)) [nM]
18 | CCCc1cc(-c2cc(NCCc3cc(Cl)c(C(F)(F)F)cc3OC)ncn2)ccc1C(=O)O [Example 197, 4-{6-[2-(5-Chloro-2-methoxy-4-trifluoromethyl-phenyl)-ethylamino]-pyrimidin-4-yl}-2-propyl-benzoic acid] | 539 | 163
19 | CCOc1cc(-c2cc(NCCc3cc(C)c(C(F)F)cc3OC)ncn2)ccc1C(=O)O [Example 199, 4-{6-[2-(4-Difluoromethyl-2-methoxy-5-methyl-phenyl)-ethylamino]-pyrimidin-4-yl}-2-ethoxy-benzoic acid] | 163 | 283
20 | CCCc1cc(-c2cc(NCCc3c(C)cc(C)cc3OC)ncn2)ccc1C(=O)O [Example 201, 4-{6-[2-(2-Methoxy-4,6-dimethyl-phenyl)-ethylamino]-pyrimidin-4-yl}-2-propyl-benzoic acid] | 140 | 482
21 | CCOc1cc(-c2cc(NCCc3c(C)cc(C)cc3OC)ncn2)ccc1CC(=O)O [Example 202, (2-Ethoxy-4-{6-[2-(2-methoxy-4,6-dimethyl-phenyl)-ethylamino]-pyrimidin-4-yl}-phenyl)-acetic acid] | 597 | 365
22 | CCCOc1cc(-c2cc(NCCc3c(C)cc(C)cc3OC)ncn2)ccc1CC(=O)O [Example 204, (4-{6-[2-(2-Methoxy-4,6-dimethyl-phenyl)-ethylamino]-pyrimidin-4-yl}-2-propoxy-phenyl)-acetic acid] | 433 | 699
23 | CCOc1cc(-c2cc(NCCc3ccc(C(F)(F)F)cc3OC)ncn2)ccc1C(=O)O [Example 205, 2-Ethoxy-4-{6-[2-(2-methoxy-4-trifluoromethyl-phenyl)-ethylamino]-pyrimidin-4-yl}-benzoic acid] | 966 | 681
24 | COc1cc(C(F)(F)F)ccc1CCNc1cc(-c2ccc(C(=O)O)c(SC)c2)ncn1 [Example 206, 4-{6-[2-(2-Methoxy-4-trifluoromethyl-phenyl)-ethylamino]-pyrimidin-4-yl}-2-methylsulfanyl-benzoic acid] | 315 | 372
25 | CCCc1cc(-c2cc(NCCc3ccc(C(F)(F)F)cc3OC)ncn2)ccc1C(=O)O [Example 207, 4-{6-[2-(2-Methoxy-4-trifluoromethyl-phenyl)-ethylamino]-pyrimidin-4-yl}-2-propyl-benzoic acid] | 721 | 491
26 | CCOc1cc(C(F)(F)F)ccc1CCNc1cc(-c2ccc(CC(=O)O)c(OCC)c2)ncn1 [Example 214, (2-Ethoxy-4-{6-[2-(2-ethoxy-4-trifluoromethyl-phenyl)-ethylamino]-pyrimidin-4-yl}-phenyl)-acetic acid] | 184 | 62
27 | CSc1cc(-c2cc(NCCc3ccc(C(F)(F)F)cc3OC(F)F)ncn2)ccc1C(=O)O [Example 218, 4-{6-[2-(2-Difluoromethoxy-4-trifluoromethyl-phenyl)-ethylamino]-pyrimidin-4-yl}-2-methylsulfanyl-benzoic acid] | 690 | 917
28 | CCOc1cc(-c2cc(NCCc3ccc(OC(F)F)cc3OC)ncn2)ccc1C(=O)O [Example 220, 4-{6-[2-(4-Difluoromethoxy-2-methoxy-phenyl)-ethylamino]-pyrimidin-4-yl}-2-ethoxy-benzoic acid] | 401 | 839
29 | COc1cc(OC(F)F)ccc1CCNc1cc(-c2ccc(C(=O)O)c(SC)c2)ncn1 [Example 221, 4-{6-[2-(4-Difluoromethoxy-2-methoxy-phenyl)-ethylamino]-pyrimidin-4-yl}-2-methylsulfanyl-benzoic acid] | 92 | 268
30 | CCCc1cc(-c2cc(NCCc3ccc(OC(F)F)cc3OC)ncn2)ccc1C(=O)O [Example 222, 4-{6-[2-(4-Difluoromethoxy-2-methoxy-phenyl)-ethylamino]-pyrimidin-4-yl}-2-propyl-benzoic acid] | 231 | 286
31 | CCOc1cc(-c2cc(NCCc3ccc(OC(F)F)cc3OC)ncn2)sc1C(=O)O [Example 224, 5-{6-[2-(4-Difluoromethoxy-2-methoxy-phenyl)-ethylamino]-pyrimidin-4-yl}-3-ethoxy-thiophene-2-carboxylic acid] | 37 | 23
32 | CCOc1cc(-c2cc(NCCc3c(F)cc(C(F)(F)F)cc3OC)ncn2)ccc1C(=O)O [Example 226, 2-Ethoxy-4-{6-[2-(2-fluoro-6-methoxy-4-trifluoromethyl-phenyl)-ethylamino]-pyrimidin-4-yl}-benzoic acid] | 907 | 273
33 | CCOc1cc(-c2cc(NCCc3c(F)cc(OC)cc3F)ncn2)ccc1C(=O)O [Example 228, 4-{6-[2-(2,6-Difluoro-4-methoxy-phenyl)-ethylamino]-pyrimidin-4-yl}-2-ethoxy-benzoic acid] | 502 | 777
34 | COc1cc(F)c(CCNc2cc(-c3ccc(C(=O)O)c(SC)c3)ncn2)c(F)c1 [Example 229, 4-{6-[2-(2,6-Difluoro-4-methoxy-phenyl)-ethylamino]-pyrimidin-4-yl}-2-methylsulfanyl-benzoic acid] | 81 | 273
